ChEMBL document CHEMBL3885861, “Open TG-GATES”

Organism: Rattus norvegicus
Experiment: Open TG-GATES - Regimen: Daily Repeat
Type: toxicity, organism-based, Sprague-Dawley
Set-up: regimen Daily Repeat, gender Male, age 6 weeks
Conditions: in vivo, po, route gavage; for TC / TG / TP / gamma-GTP / A/G / ALP / ALT / AST / BUN / CRE / Ca / Cl / GLC / IP / K / LDH / Na / PL / RALB: tissue Plasma; for APTT / Bas / Eos / Fbg / Hb / Ht / Lym / MCH / MCHC / MCV / Mono / Neu / PT / Plat / RBC / Ret / WBC: tissue Blood; for KIDNEY_L / KIDNEY_R / KIDNEY_TOTAL: tissue Kidney; for LIVER: tissue Liver
[1] = 100 mg/kg, […], dose level Low, time 28 day
[2] = 300 mg/kg, 72 h, dose level Middle, time 3 day
[3] = 300 mg/kg, […], dose level Middle, time 7 day
[4] = 300 mg/kg, […], dose level Middle, time 14 day
[5] = 300 mg/kg, […], dose level Middle, time 28 day
[6] = 1000 mg/kg, 72 h, dose level High, time 3 day
[7] = 1000 mg/kg, […], dose level High, time 7 day
[8] = 1000 mg/kg, […], dose level High, time 14 day
[9] = 1000 mg/kg, […], dose level High, time 28 day

## O=C(O)c1ccccc1Nc1ccccc1 [FENAMIC ACID]
[1]
  TC: 76.6 mg/dL
  TG: 129.6 mg/dL
  TP: 6.2 g/dL
  gamma-GTP: 1 IU/L
[2]
  TERMINAL_BW: 241.8 g
  APTT: 15.8 s
  Bas: 0.4%
  Eos: 1%
  Fbg: 293.6 mg/dL
  Hb: 13.4 g/dL
  Ht: 40.1%
  Lym: 74.2%
  MCH: 20.9 pg
  MCHC: 33.4%
  MCV: 62.8 fL
  Mono: 2.8%
  Neu: 21.8%
  PT: 14 s
  Plat: 137.1 x10_4/uL
  RBC: 639.6 x10_4/ul
  Ret: 6.8%
  WBC: 91.3 x10_2/uL
  KIDNEY_L: 1 g
  KIDNEY_R: 1 g
  KIDNEY_TOTAL: 1.9 g
  LIVER: 12 g
  A/G: 0.9
  ALP: 1538.8 IU/L
  ALT: 37.4 IU/L
  AST: 64.8 IU/L
  BUN: 14.2 mg/dL
  CRE: 0.2 mg/dL
  Ca: 11.6 mg/dL
  Cl: 105.8 meq/L
  GLC: 183 mg/dL
  IP: 6.4 mg/dL
  K: 4.3 meq/L
  LDH: 119.8 IU/L
  Na: 142.8 meq/L
  PL: 156 mg/dL
  RALB: 2.7 g/dL
  TC: 82.4 mg/dL
  TG: 99.4 mg/dL
  TP: 5.7 g/dL
  gamma-GTP: 1.6 IU/L
[3]
  TERMINAL_BW: 275.7 g
  APTT: 16.6 s
  Bas: 0.6%
  Eos: 1.2%
  Fbg: 313 mg/dL
  Hb: 13.6 g/dL
  Ht: 40.4%
  Lym: 80.6%
  MCH: 20.8 pg
  MCHC: 33.7%
  MCV: 61.5 fL
  Mono: 2.4%
  Neu: 15.2%
  PT: 13.9 s
  Plat: 137.6 x10_4/uL
  RBC: 656.8 x10_4/ul
  Ret: 6.2%
  WBC: 89.7 x10_2/uL
  KIDNEY_L: 1.3 g
  KIDNEY_R: 1.2 g
  KIDNEY_TOTAL: 2.5 g
  LIVER: 13.4 g
  A/G: 0.9
  ALP: 1312 IU/L
  ALT: 36.6 IU/L
  AST: 63.4 IU/L
  BUN: 26.8 mg/dL
  CRE: 0.3 mg/dL
  Ca: 11.8 mg/dL
  Cl: 103.8 meq/L
  GLC: 185 mg/dL
  IP: 7 mg/dL
  K: 4.6 meq/L
  LDH: 108 IU/L
  Na: 143.6 meq/L
  PL: 150.4 mg/dL
  RALB: 2.8 g/dL
  TC: 80.8 mg/dL
  TG: 91.6 mg/dL
  TP: 6 g/dL
  gamma-GTP: 1.6 IU/L
[4]
  TERMINAL_BW: 344.9 g
  APTT: 15.8 s
  Bas: 0.8%
  Eos: 0.8%
  Fbg: 296 mg/dL
  Hb: 14.4 g/dL
  Ht: 42.2%
  Lym: 79.8%
  MCH: 20.1 pg
  MCHC: 34.2%
  MCV: 58.6 fL
  Mono: 2.2%
  Neu: 16.4%
  PT: 13.8 s
  Plat: 131.5 x10_4/uL
  RBC: 719.6 x10_4/ul
  Ret: 4.7%
  WBC: 104.7 x10_2/uL
  KIDNEY_L: 1.4 g
  KIDNEY_R: 1.4 g
  KIDNEY_TOTAL: 2.7 g
  LIVER: 16.2 g
  A/G: 0.8
  ALP: 1463.6 IU/L
  ALT: 36.8 IU/L
  AST: 58.4 IU/L
  BUN: 15.8 mg/dL
  CRE: 0.3 mg/dL
  Ca: 11.3 mg/dL
  Cl: 104 meq/L
  GLC: 178 mg/dL
  IP: 6.5 mg/dL
  K: 4 meq/L
  LDH: 102.2 IU/L
  Na: 144.2 meq/L
  PL: 160.8 mg/dL
  RALB: 2.8 g/dL
  TC: 80.8 mg/dL
  TG: 117.2 mg/dL
  TP: 6.2 g/dL
  gamma-GTP: 1.2 IU/L
[5]
  TERMINAL_BW: 435 g
  APTT: 17.6 s
  Bas: 0.4%
  Eos: 1.4%
  Fbg: 314.2 mg/dL
  Hb: 14.8 g/dL
  Ht: 42.7%
  Lym: 79.8%
  MCH: 18.8 pg
  MCHC: 34.7%
  MCV: 54.1 fL
  Mono: 2.6%
  Neu: 15.8%
  PT: 14.1 s
  Plat: 119.3 x10_4/uL
  RBC: 789.8 x10_4/ul
  Ret: 2.7%
  WBC: 92.3 x10_2/uL
  KIDNEY_L: 1.5 g
  KIDNEY_R: 1.5 g
  KIDNEY_TOTAL: 3 g
  LIVER: 19 g
  A/G: 0.8
  ALP: 942.2 IU/L
  ALT: 31 IU/L
  AST: 53.2 IU/L
  BUN: 15.6 mg/dL
  CRE: 0.3 mg/dL
  Ca: 11.3 mg/dL
  Cl: 103.8 meq/L
  GLC: 186.6 mg/dL
  IP: 6.7 mg/dL
  K: 4 meq/L
  LDH: 107.6 IU/L
  Na: 144.6 meq/L
  PL: 161.8 mg/dL
  RALB: 2.9 g/dL
  TC: 82.2 mg/dL
  TG: 100.8 mg/dL
  TP: 6.4 g/dL
  gamma-GTP: 1 IU/L
[6]
  TERMINAL_BW: 219.3 g
  APTT: 17 s
  Bas: 0.3%
  Eos: 0.7%
  Fbg: 440 mg/dL
  Hb: 13.3 g/dL
  Ht: 39.3%
  Lym: 50.3%
  MCH: 20.5 pg
  MCHC: 33.8%
  MCV: 60.5 fL
  Mono: 3.3%
  Neu: 44.3%
  PT: 14 s
  Plat: 127 x10_4/uL
  RBC: 650 x10_4/ul
  Ret: 5.7%
  WBC: 132.2 x10_2/uL
  KIDNEY_L: 1.1 g
  KIDNEY_R: 1.1 g
  KIDNEY_TOTAL: 2.1 g
  LIVER: 10.8 g
  A/G: 0.9
  ALP: 1423.7 IU/L
  ALT: 37.7 IU/L
  AST: 58.3 IU/L
  BUN: 17 mg/dL
  CRE: 0.2 mg/dL
  Ca: 11.4 mg/dL
  Cl: 109 meq/L
  GLC: 165.7 mg/dL
  IP: 6.6 mg/dL
  K: 4.4 meq/L
  LDH: 100.3 IU/L
  Na: 143.3 meq/L
  PL: 148.7 mg/dL
  RALB: 2.5 g/dL
  TC: 67 mg/dL
  TG: 89.3 mg/dL
  TP: 5.3 g/dL
  gamma-GTP: 1.3 IU/L
[7]
  TERMINAL_BW: 253.6 g
  APTT: 16.6 s
  Bas: 1%
  Eos: 0.7%
  Fbg: 290.7 mg/dL
  Hb: 12.6 g/dL
  Ht: 37%
  Lym: 72.3%
  MCH: 20.5 pg
  MCHC: 34%
  MCV: 60.2 fL
  Mono: 3%
  Neu: 23.3%
  PT: 14.1 s
  Plat: 156 x10_4/uL
  RBC: 616 x10_4/ul
  Ret: 7.7%
  WBC: 161.4 x10_2/uL
  KIDNEY_L: 1.1 g
  KIDNEY_R: 1.1 g
  KIDNEY_TOTAL: 2.3 g
  LIVER: 12.5 g
  A/G: 0.9
  ALP: 1573.3 IU/L
  ALT: 38 IU/L
  AST: 62.7 IU/L
  BUN: 20 mg/dL
  CRE: 0.3 mg/dL
  Ca: 11.5 mg/dL
  Cl: 107 meq/L
  GLC: 177.3 mg/dL
  IP: 6.3 mg/dL
  K: 4.3 meq/L
  LDH: 117 IU/L
  Na: 144 meq/L
  PL: 155.7 mg/dL
  RALB: 2.6 g/dL
  TC: 87.7 mg/dL
  TG: 75.3 mg/dL
  TP: 5.6 g/dL
  gamma-GTP: 1 IU/L
[8]
  TERMINAL_BW: 281.5 g
  APTT: 32.8 s
  Bas: 0.7%
  Eos: 0.3%
  Fbg: 473.3 mg/dL
  Hb: 14 g/dL
  Ht: 41.7%
  Lym: 53.3%
  MCH: 21.1 pg
  MCHC: 33.5%
  MCV: 63.2 fL
  Mono: 3.7%
  Neu: 41.7%
  PT: 13.2 s
  Plat: 171.8 x10_4/uL
  RBC: 674 x10_4/ul
  Ret: 13.6%
  WBC: 149.3 x10_2/uL
  KIDNEY_L: 2.1 g
  KIDNEY_R: 1.8 g
  KIDNEY_TOTAL: 4 g
  LIVER: 13.5 g
  A/G: 0.9
  ALP: 1270.3 IU/L
  ALT: 38.3 IU/L
  AST: 57.3 IU/L
  BUN: 118.3 mg/dL
  CRE: 0.5 mg/dL
  Ca: 11.8 mg/dL
  Cl: 105.7 meq/L
  GLC: 156.7 mg/dL
  IP: 11 mg/dL
  K: 5.2 meq/L
  LDH: 210 IU/L
  Na: 145.3 meq/L
  PL: 140.7 mg/dL
  RALB: 2.9 g/dL
  TC: 65 mg/dL
  TG: 94.7 mg/dL
  TP: 6.3 g/dL
  gamma-GTP: 2 IU/L
[9]
  TERMINAL_BW: 383.3 g
  APTT: 17.1 s
  Bas: 0%
  Eos: 0.5%
  Fbg: 334.5 mg/dL
  Hb: 12.2 g/dL
  Ht: 36%
  Lym: 69%
  MCH: 19.6 pg
  MCHC: 34%
  MCV: 57.6 fL
  Mono: 2.5%
  Neu: 27.5%
  PT: 13.9 s
  Plat: 139.6 x10_4/uL
  RBC: 626 x10_4/ul
  Ret: 7.5%
  WBC: 154.4 x10_2/uL
  KIDNEY_L: 1.7 g
  KIDNEY_R: 1.6 g
  KIDNEY_TOTAL: 3.3 g
  LIVER: 18.7 g
  A/G: 0.9
  ALP: 1013.5 IU/L
  ALT: 36.5 IU/L
  AST: 61.5 IU/L
  BUN: 20 mg/dL
  CRE: 0.3 mg/dL
  Ca: 10.8 mg/dL
  Cl: 105 meq/L
  GLC: 182.5 mg/dL
  IP: 5.5 mg/dL
  K: 4.2 meq/L
  LDH: 155.5 IU/L
  Na: 144.5 meq/L
  PL: 166 mg/dL
  RALB: 2.5 g/dL
  TC: 80 mg/dL
  TG: 92 mg/dL
  TP: 5.5 g/dL
  gamma-GTP: 1 IU/L
